Source: patent publication US12108762B2, “Methods of controlling crop pests using aromatic amide insect repellents, methods of making aromatic amide insect repellents, and novel aromatic amide insect repellents” (priority 2020, dated 2024)

Experiments:
[1] = biological target: T1, Gr33a (Drosophila melanogaster, UniProt Q9VKA5); assay: Gustatory assay with receptor-modified (Gr33a knockdown) flies; assay type: in vivo, fruit flies
T1 construct: endogenous in cells; host or cells: whole living fruit flies (behavioural gustatory assay)
T1 sequence (Q9VKA5 1-475): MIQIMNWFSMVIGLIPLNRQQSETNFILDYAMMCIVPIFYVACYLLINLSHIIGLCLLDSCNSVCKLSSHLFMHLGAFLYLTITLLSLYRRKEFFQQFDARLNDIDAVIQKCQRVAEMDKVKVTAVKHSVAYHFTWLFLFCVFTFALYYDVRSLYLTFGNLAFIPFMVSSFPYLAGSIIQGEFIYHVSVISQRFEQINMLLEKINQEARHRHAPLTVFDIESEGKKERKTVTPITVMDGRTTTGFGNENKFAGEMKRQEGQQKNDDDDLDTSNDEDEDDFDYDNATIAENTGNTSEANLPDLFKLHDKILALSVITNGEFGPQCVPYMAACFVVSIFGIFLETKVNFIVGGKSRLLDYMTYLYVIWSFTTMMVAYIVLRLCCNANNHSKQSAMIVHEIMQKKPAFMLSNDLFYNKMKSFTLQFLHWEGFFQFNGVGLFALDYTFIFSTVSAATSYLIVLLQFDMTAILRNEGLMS
Protocol: (§1) The neurophysiological mechanisms of repellency were analyzed using receptors that are essential for DEET detection, Or83b and Gr33a. […] These receptors also play a role in the repellency of the most promising of the present aromatic amide compounds.

[2] = biological target: T2, Or83b (Drosophila melanogaster, UniProt Q9VNB5); assay: Olfactory assays with receptor-modified (Or83b knockdown) flies; assay type: in vivo, fruit flies; conditions: for effectiveness with receptor-modified flies, one-choice trap olfactory assay: compared with assays with unmodified flies; for Or83b and Gr33a requirement for detection of the compound: fruit flies; for Or83b and Gr33a requirement for detection of the compound / effectiveness as repellent with Or83b-modified flies above the knockdown temperature: olfactory assays; for effectiveness as repellent with Or83b-modified flies above the knockdown temperature: compared with unmodified flies
T2 construct: endogenous in cells; host or cells: whole living fruit flies (behavioural olfactory assays)
T2 sequence (Q9VNB5 1-486): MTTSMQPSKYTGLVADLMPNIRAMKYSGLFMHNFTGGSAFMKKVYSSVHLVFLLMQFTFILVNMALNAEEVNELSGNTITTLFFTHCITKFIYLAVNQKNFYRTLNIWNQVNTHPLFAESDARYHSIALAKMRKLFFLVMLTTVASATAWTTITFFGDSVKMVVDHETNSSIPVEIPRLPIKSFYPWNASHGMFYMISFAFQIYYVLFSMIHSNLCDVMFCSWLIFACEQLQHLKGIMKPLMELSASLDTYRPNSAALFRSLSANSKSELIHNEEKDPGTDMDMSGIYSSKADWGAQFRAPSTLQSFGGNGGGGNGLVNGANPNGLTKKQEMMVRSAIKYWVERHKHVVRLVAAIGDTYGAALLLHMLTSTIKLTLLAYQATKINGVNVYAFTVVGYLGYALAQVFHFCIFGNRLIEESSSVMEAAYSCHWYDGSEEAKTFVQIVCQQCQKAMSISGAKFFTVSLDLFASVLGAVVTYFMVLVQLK
Protocol: as §1

[3] = tested on: Drosophila melanogaster; assay: One-choice (single-trap) olfactory trap assay; assay type: in vivo; conditions: for repellency compared with DEET, one-choice trap assay: 25 μl of 25% by weight in DMSO on filter paper, 10% ACV attractant, 6 hours (FIG. 10) and 24 hours (FIG. 13); for repellency / fly death during the 6-hour screen: 6 hours; for fly death during the 6-hour screen: starved flies
Protocol: (§2) The D. melanogaster assays served as a model for SWD repellency. Forty different aromatic amides were studied at a 25% concentration by weight in DMSO, and the fruit fly chemosensory behaviors in response thereto were characterized. […]
(§3) Flies were monitored throughout their life cycle. Five-day-old flies (10 male and 10 females) were selected per assay, and starved for a predetermined length of time (e.g., 20 hours). After starvation, two different assays were used to study the olfactory related responses.
FIG. 7A is a diagram of a single-trap olfactory assay. Flies 105 were placed in a cylindrical chamber 100 containing a trap 110. The trap 110 was fashioned from an upturned 1.5 ml micro-centrifuge tube where the tapered end was trimmed away. A pipette tip 120 was cut to form a funnel and inserted into the bottom of the inverted micro-centrifuge tube 110. Then, filter paper 130 was placed between the pipette tip 120 and tip of micro-centrifuge tube 110. The pipette tip 120 was placed so that entering flies could not make physical contact with the filter paper 130. The filter paper 130 was placed in this manner so that when the filter paper 130 was treated with the repellent solution, the flies would only be able to smell at a distance and should be repelled even in the presence of an attractant.
A 25 μl sample of test compound at 25% concentration was applied to the filter paper 130 in order to provide the odor source. At the bottom of the trap 110, 125 μl of 10% apple cider vinegar (ACV) was placed as an attractant. Trials were conducted for 24 hours to visualize the number of flies 105 entering the trap 110. Typically, flies that entered the trap 110 contacted the liquid ACV and died in the ACV. Flies were counted and recorded at 4, 6, and 24 hours. No control other than DEET was used for this experiment, because it was a single trap, comparing the number of flies 105 repelled by the repellent versus the number of flies 105 interacting with the attractant (ACV).
(§4) The different assays assigned results as follows. For the single-choice olfactory assay, the numbers of flies were counted according to (1) those that entered the trap, (2) those that stayed outside the trap and lived, and (3) those that died outside the trap. For the two-choice olfactory assay, the numbers of flies were counted according to (1) those that entered the control trap, (2) those that entered the trap containing the repellent, (3) those that stayed outside of both traps and lived, and (4) those that died outside the traps. For the gustatory assay, the numbers of flies were counted according to those that had (1) a red-colored abdomen, (2) a blue-colored abdomen, (3) a purple abdomen, and (4) no added color to their abdomen. A nonparametric Mann-Whitney U test was used to compare the statistical differences between assays using DEET and the same assays using one of the present repellents for all trials.

[4] = tested on: Drosophila melanogaster; assay: Two-choice trap olfactory assay; assay type: in vivo; conditions: for trap preference (control trap versus repellent-treated trap): DMSO control vs 25 μl of 25% by weight in DMSO
Protocol: as §2, §3
FIG. 7B is a diagram of a 2-choice trap olfactory assay. Two ACV traps 110a-b were prepared as above, in a cylinder 150 from upturned 1.5 ml micro-centrifuge tubes with the tapered end trimmed away, and a pipette 120a-b inserted into the inverted micro-centrifuge tube. In the cylinder 150, one trap 110a was treated with 25 μl of DMSO (as a control) on the filter paper 135, and the other trap 110b with the 25 μl of the 25% by weight solution of the test compound in DMSO applied to the filter paper 130. 125 μl of 10% ACV, diluted with water, was placed in the bottom of the traps 110a-b. Both traps contained filter paper as prepared in the one-trap assay. All trials were screened for 24 hours, and the number of flies 105 in each trap was counted. Positions of the traps (i.e., left or right, relative to the location of the chamber 150 in the room) were randomized. The number of flies 105 in each trap 110a and 110b were counted and recorded at 4, 6 and 24 hours.
as §4

[5] = tested on: Drosophila melanogaster; assay: Habituation assay (prior exposure, then olfactory and gustatory screens); assay type: in vivo; conditions: for habituation of fruit flies, overall (olfactory and gustatory assays): post-exposure; for repellency after prior exposure, gustatory assay: prior exposure 25% by weight, gustatory screen at 5 mM
Protocol: (§5) In the gustatory assay, the consumption of sugar (from a solution in a gel) treated at varying concentrations of the present repellent compounds was compared to the consumption of control-treated sugar. For the habituation assay, flies were tested over repeated exposures to the present repellent compounds to measure changes in behavioral preference for the compounds.
Flies were continuously monitored throughout their lifetime. In this assay, 3- to 5-day-old flies (70 male and 70 female) were selected and transferred to an empty fly food container 320 (FIG. 9). The polystyrene foam cap 310 was treated with 50 μL of 25% by weight of the present aromatic amide repellent in DMSO. A thin porous material 330 was placed around the treated cap 310, with a gap between the cap 310 and the material 330 so that the flies cannot touch the treated cap 310, but can only smell it. […] After the 20-hour period, the flies were screened in the olfactory assay and gustatory assays above. In the olfactory assay, the number of flies in the trap, the number of flies outside the trap, and the number of flies that died outside the trap were counted as described herein, and in the gustatory assay, the color of the flies' abdomens were determined and counted, as described herein.
as §4

[6] = tested on: Drosophila melanogaster; assay: Gustatory assay (fructose preference, food colouring); assay type: in vivo; conditions: 1 hour feeding
Protocol: The D. melanogaster assays served as a model for SWD repellency. Forty different aromatic amides were studied at a 25% concentration by weight in DMSO, and the fruit fly chemosensory behaviors in response thereto were characterized.
as §5
Flies were continuously monitored throughout their lifecycle. In doing so, 3- to 5-day-old flies (half male and half female) were selected and starved for 20 hours. Flies were then introduced to 96-well plates 200 with wells 210a-220vv that were alternately filled with two different sugar solutions, as shown in FIG. 8. Wells 210a-210vv were filled with 25 mM fructose in DMSO (as a control), colored with red food coloring, and wells 220a-220vv were filled with […] fructose mixed with 5 mM of the present insect repellent in DMSO, colored with blue food coloring. The food coloring is nontoxic, so it has no effect on preference. Using an established protocol (Montell, C., et al., Avoiding DEET through insect gustatory receptors. NIH Neuron 67(4), 2010, 555-561: doi:10.1016/j.neuron.2010.07.006), flies selected between the fructose control or fructose mixed with aromatic amide repellent. Tests were performed on at least one group of about 50 males and at least one group of 50 females. Flies were placed in the dark for 1 hour, then the food coloring in the fly's abdomen was visualized under a compound microscope. The color of the abdomen was noted, along with the intensity, providing a quantitative idea of how much sugar each fly consumed, and from which type of well (control vs. mixed with repellent). The flies were fed for one hour so that the amount of food coloring was significant enough to be visible. A preference index was made to define the amount of food coloring consumed and assess the degree of repellent avoidance via gustatory processes.
as §4

[7] = one-choice trap, 25% concentration

SMILES	preference for repellent-treated food source post-knockdown, gustatory assay [1]	effectiveness with receptor-modified flies, one-choice trap olfactory assay [2]	Or83b and Gr33a requirement for detection of the compound [2]	effectiveness as repellent with Or83b-modified flies above the knockdown temperature [2]	preference of receptor-modified flies for the compound, olfactory assays [2]	repellency compared with DEET, one-choice trap assay [3]	ranking among repellents in the one-choice assay [3, 7]	repellency [3, 7]	fly death during the 6-hour screen [3, 7]	participation in choosing either trap ([4]; 25% by weight, 6 hours)	trap preference (control trap versus repellent-treated trap) ([4]; 6 hours)	habituation of fruit flies, overall (olfactory and gustatory assays) [5]	repellency after prior exposure, gustatory assay [5]	further results
O=C(c1cccc(F)c1)N1CCCC1 [Compound 2mB, N-[m-fluorobenzoyl]pyrrolidine]	increased preference	significantly less effective	required	significantly less effective	much higher preference	more effective than DEET	most effective repellents	significant repellency	no fly death	less overall participation	preference for the control trap	demonstrated habituation in at least one assay	significantly less repellency	effectiveness with receptor-modified flies, gustatory assay ([1]; compared with unmodified flies): significantly less effective; aversion (no flies entering the single-choice trap) [3, 7]: 100%; average number of flies that chose a trap in 6 hours ([4]; 25% by weight, 20 flies per assay, 6 hours): 4 flies; repellency after prior exposure, one-choice trap olfactory assay ([5]; prior exposure to 25% by weight repellent for 20 hours, compared with earlier assay): worse at repelling insects after prior exposure
CN1CCN(C(=O)c2ccccc2F)CC1 [Compound 2oE, 1-methyl-4-[o-fluorobenzoyl]piperazine]	increased preference	less effective, but statistically similar	required	significantly less effective	much higher preference	more effective than DEET	most effective repellents	–	some fly death	less overall participation	preference for the control trap	unable to habituate	statistically similar results	fly mortality ([3]; one-choice trap, 25% concentration, exposure in the gas phase): relatively insignificant; interaction with control trap in comparison with repellent-treated trap ([4]; 25% by weight, low participation): more flies interacted with the control trap
O=C(c1cccc(C(F)(F)F)c1)N1CCCCC1 [Compound 3mC]	–	–	–	–	–	more effective than DEET	–	significant repellency	no fly death	less overall participation	preference for the control trap	–	–	gustatory repellency compared with DEET ([6]; 5 mM repellent, FIG. 12): significantly worse than DEET; gustatory repellency (preference for repellent-treated sugar versus control-treated sugar) ([6]; 35 mM fructose with 5 mM repellent vs 25 mM fructose control): act as a gustatory repellent
